Assay results reported in patent US6218406A, “Farnesyl transferase inhibitors, their preparation, the pharmaceutical compositions which contain them and their use in the preparation of medicaments” (Aventis Pharma S.A., priority 1996, dated 2001).
Structures can show the parent of a compound that is named as a salt.

Target: farnesyl transferase (Homo sapiens, UniProt P49354+P49356)
Test: Farnesyl transferase inhibition, [3H]-farnesylation of biotinylated K-ras C-terminal peptide (SPA assay)
Assay type: biochemical
Settings: In vitro inhibitory activity (K-Ras) IC50, K-Ras substrate; 60 min at 37° C.; mean of two IC50 values

| Compound | IC50 |
| --- | --- |
| C=C(C(=O)N1C[C@H]2[C@@]3(c4ccc(C)s4)CC[C@@H](c4ccccc43)[C@]2(C(=O)O)C1)c1ccccc1OC (racemic) [Example 48, (3aRS,4SR,9SR,9aRS)-4,9-ethano-2-[2-(2-methoxyphenyl)propenoyl]-9-(5-methyl-2-thienyl)-2,3,3a,4,9,9a-hexahydro-1H-benzo[f]isoindole-3a-carboxylic Acid] | 95 nM |

Same assay, conditions: K-Ras substrate; 60 min at 37° C.; mean of two IC50 values; read-out: In vitro inhibitory activity (K-Ras) IC50

| Compound | IC50 |
| --- | --- |
| COC(=O)[C@@]12CN(C(=O)Cc3ccccc3OC)C[C@@H]1[C@]1(c3ccc(C)c(C)c3)CC[C@H]2c2ccccc21 (racemic) [Example 11, Methyl (3aRS,4SR,9SR,9aRS)-9-(3,4-dimethylphenyl)-4,9-ethano-2-[(2-methoxyphenyl)acetyl]-2,3,3a,4,9,9a-hexahydro-1H-benzo[f]isoindole-3a-carboxylate] | 345 nM |
| C=C(C(=O)N1C[C@@H]2[C@]3(c4ccc5c(c4)OCCO5)CC[C@@H](c4ccccc43)[C@]2(C(=O)OC)C1)c1ccccc1OC (racemic) [Example 31, methyl (3aRS,4SR,9SR,9aRS)-9-(2,3-dihydro-1,4-benzodioxin-6-yl)-4,9-ethano-2-[2-(2-methoxyphenyl)propenoyl]-2,3,3a,4,9,9a-hexahydro-1H-benzo[f]isoindole-3a-carboxylate] | 101 nM |
| C=C(C(=O)N1C[C@@H]2[C@]3(c4cccc(N)c4)CC[C@@H](c4ccccc43)[C@]2(C(=O)OC)C1)c1ccccc1OC (racemic) [Example 93, methyl (3aRS,4SR,9SR,9aRS)-9-(3-aminophenyl)-4,9-ethano-2-[2-(2-methoxyphenyl)propenoyl]-2,3,3a,4,9,9a-hexahydro-1H-benzo[f]isoindole-3a-carboxylate hydrochloride] | 786 nM |
| C=C(C(=O)N1C[C@@H]2[C@]3(c4ccc(C)c(C)c4)CC[C@@H](c4ccccc43)[C@]2(C(=O)OC)C1)c1ccccc1OC (racemic) [Example 71, methyl (3aRS,4SR,9SR,9aRS)-9-(3,4-dimethylphenyl)-4,9-ethano-2-[2-(2-methoxyphenyl)propenoyl]-2,3,3a,4,9,9a-hexahydro-1H-benzo[f]isoindole-3a-carboxylate] | 335 nM |
| C=C(C(=O)N1C[C@@H]2[C@]3(c4cccc(F)c4)CC[C@@H](c4ccccc43)[C@]2(C(=O)O)C1)c1ccccc1OC (racemic) [Example 86, (3aRS,4SR,9SR,9aRS)-4,9-ethano-9-(3-fluorophenyl)-2-[2-(2-methoxyphenyl)propenoyl]-2,3,3a,4,9,9a-hexahydro-1H-benzo[f]isoindole-3a-carboxylic Acid] | 5 nM |
| C=C(C(=O)N1C[C@@H]2[C@]3(c4cccc(F)c4)CC[C@@H](c4ccccc43)[C@]2(C(=O)OC)C1)c1ccccc1OC (racemic) [Example 85, methyl (3aRS,4SR,9SR,9aRS)-4,9-ethano-9-(3-fluorophenyl)-2-[2-(2-methoxyphenyl)propenoyl]-2,3,3a,4,9,9a-hexahydro-1H-benzo[f]isoindole-3a-carboxylate] | 508 nM |
| C=C(C(=O)N1C[C@@H]2[C@]3(c4ccc(C(F)(F)F)cc4)CC[C@@H](c4ccccc43)[C@]2(C(=O)NNc2ccccc2)C1)c1ccccc1OC (relative stereo) [Example 44, (3aRS,4SR,9SR,9aRS)-4,9-ethano-2-[2-(2-methoxyphenyl)propenoyl]-9-[4-(trifluoromethyl)phenyl]-2,3,3a,4,9,9a-hexahydro-1H-benzo[f]isoindole-3a-N'-phenylcarbohydrazide] | 369 nM |
| C=C(C(=O)N1CC2C3(c4ccc(OC)cc4)CCC(c4ccccc43)C2(C(=O)NC(C(=O)O)c2ccccc2)C1)c1ccccc1OC (stereo not drawn) [Example 81, (RS)- and (SR)-2-{(3aRS,4SR,9SR,9aRS)-4,9-ethano-9-(4-methoxyphenyl)-2-[2-(2-methoxyphenyl)propenoyl]-2,3,3a,4,9,9a-hexahydro-1H-benzo[f]isoindole-3a-carbonylamino}phenylacetic Acids] | 18 nM |
| C=C(C(=O)N1C[C@@H]2[C@]3(c4ccc5c(c4)OCCO5)CC[C@@H](c4ccccc43)[C@]2(C(=O)NCc2cccnc2)C1)c1ccccc1OC (single isomer, unassigned) [Example 35, levorotatory enantiomer of (3aRS,4SR,9SR,9aRS)-9-(2,3-dihydro-1,4-benzodioxin-6-yl)-4,9-ethano-2-[2-(2-methoxyphenyl)propenoyl]-2,3,3a,4,9,9a-hexahydro-1H-benzo[f]isoindole-3a-N-(3-pyridylmethyl)carboxamide] | 84 nM |
| C=C(C(=O)N1C[C@H]2[C@@]3(c4ccc(OC)cc4)CC[C@H](c4ccccc43)[C@@]2(C(=O)NNc2ccccc2)C1)c1ccccc1OC (relative stereo) [Example 77, (3aRS,4SR,9SR,9aRS)-4,9-ethano-9-(4-methoxyphenyl)-2-[2-(2-methoxyphenyl)propenoyl]-2,3,3a,4,9,9a-hexahydro-1H-benzo[f]isoindole-3a-N'-phenylcarbohydrazide] | 204 nM |
| C=C(C(=O)N1C[C@H]2[C@@]3(c4ccc5c(c4)OCCO5)CC[C@H](c4ccccc43)[C@@]2(C(=O)NCc2cccnc2)C1)c1ccccc1OC (single isomer, unassigned) [Example 34, dextrorotatory enantiomer of (3aRS,4SR,9SR,9aRS)-9-(2,3-dihydro-1,4-benzodioxin-6-yl)-4,9-ethano-2-[2-(2-methoxyphenyl)propenoyl]-2,3,3a,4,9,9a-hexahydro-1H-benzo[f]isoindole-3a-N-(3-pyridylmethyl)carboxamide] | < 20 nM |
| COc1ccccc1CC(=O)N1C[C@@H]2[C@]3(c4cc(C)c(C)c(C)c4)CC[C@@H](c4ccccc43)[C@]2(C(=O)O)C1 (racemic) [Example 37, (3aRS,4SR,9SR,9aRS)-4,9-ethano-2-[(2-methoxyphenyl)acetyl]-9-(3,4,5-trimethylphenyl)-2,3,3a,4,9,9a-hexahydro-1H-benzo[f]isoindole-3a-carboxylic Acid] | 88 nM |
| C=C(C(=O)N1C[C@@H]2[C@]3(c4ccc(OC)cc4)CC[C@@](C)(c4ccccc43)[C@@]2(C(=O)O)C1)c1ccccc1OC (racemic) [Example 101, (3aRS,4SR,9SR,9aRS)-4,9-ethano-2-[2-(2-methoxyphenyl)propenoyl]-9-(4-methoxyphenyl)-4-methyl-2,3,3a,4,9,9a-hexahydro-1H-benzo[f]isoindole-3a-carboxylic Acid] | < 19 nM |

The next lines start with the values.

| IC50 | Compound |
| --- | --- |
| 28 nM | C=C(C(=O)N1C[C@H]2[C@@]3(c4ccc(C)cc4)CC[C@H](c4ccccc43)[C@@]2(C(=O)O)C1)c1ccccc1OC (single isomer, unassigned) [Example 3, dextrorotatory enantiomer of (3aRS,4SR,9RS,9aRS)-4,9-ethano-2-[2-(2-methoxyphenyl)propenoyl]-9-(4-methylphenyl)-2,3,3a,4,9,9a-hexahydro-1H-benzo[f]isoindole-3a-carboxylic acid] |
| 9 nM | C=C(C(=O)N1C[C@H]2[C@@]3(c4ccc(C)cc4)CC[C@H](c4ccccc43)[C@@]2(C(=O)NNc2ccc(OC)cc2)C1)c1ccccc1OC (relative stereo) [Example 27, (3aRS,4SR,9SR,9aRS)-4,9-ethano-2-[2-(2-methoxyphenyl)propenoyl]-9-(4-methylphenyl)-2,3,3a,4,9,9a-hexahydro-1H-benzo[f]isoindole-3a-N'-(4-methoxyphenyl)carbohydrazide] |
| 181 nM | C=C(C(=O)N1C[C@@H]2[C@]3(c4ccc(Cl)cc4)CC[C@@H](c4ccccc43)[C@]2(C(=O)OC)C1)c1ccccc1OC (racemic) [Example 52, methyl (3aRS,4SR,9SR,9aRS)-9-(4-chlorophenyl)-4,9-ethano-2-[2-(2-methoxyphenyl)-propenoyl]-2,3,3a,4,9,9a-hexahydro-1H-benzo[f]isoindole-3a-carboxylate] |
| 229 nM | C=C(C(=O)N1C[C@@H]2[C@]3(c4ccc(Br)cc4)CC[C@@H](c4ccccc43)[C@]2(C(=O)OC)C1)c1ccccc1OC (racemic) [Example 49, methyl (3aRS,4SR,9SR,9aRS)-9-(4-bromophenyl)-4,9-ethano-2-[2-(2-methoxyphenyl)-propenoyl]-2,3,3a,4,9,9a-hexahydro-1H-benzo[f]isoindole-3a-carboxylate] |
| 360 nM | C=C(C(=O)N1C[C@@H]2[C@]3(c4ccc(C)cc4)CC[C@@H](c4ccccc43)[C@]2(C(=O)NO)C1)c1ccccc1OC (racemic) [Example 16, (3aRS,4SR,9SR,9aRS)-4,9-ethano-2-[2-(2-methoxyphenyl)propenoyl]-9-(4-methylphenyl)-2,3,3a,4,9,9a-hexahydro-1H-benzo[f]isoindole-3a-hydroxamic acid] |
| 325 nM | C=C(C(=O)N1C[C@@H]2[C@]3(c4ccc(F)cc4)CC[C@@H](c4ccccc43)[C@]2(C(=O)OC)C1)c1ccccc1OC (racemic) [Example 64, methyl (3aRS,4SR,9SR,9aRS)-4,9-ethano-9-(4-fluorophenyl)-2-[2-(2-methoxyphenyl)propenoyl]-2,3,3a,4,9,9a-hexahydro-1H-benzo[f]isoindole-3a-carboxylate] |
| 97 nM | C=C(C(=O)N1C[C@@H]2[C@]3(c4ccc(OC(F)(F)F)cc4)CC[C@@H](c4ccccc43)[C@]2(C(=O)O)C1)c1ccccc1OC (racemic) [Example 82, (3aRS,4SR,9SR,9aRS)-4,9-ethano-2-[2-(2-methoxyphenyl)propenoyl]-9-(4-trifluoromethoxyphenyl)-2,3,3a,4,9,9a-hexahydro-1H-benzo[f]isoindole-3a-carboxylic Acid] |

System: HCT116 human colic carcinoma line
Test: In vivo antitumour test, human carcinoma grafted subcutaneously into mice
Settings: 400 mg/kg/adm., orally
Procedure: The influence of the compounds according to the invention, administered to mice, on the growth of carcinomas of human origin grafted subcutaneously into these mice was studied.
On day 0 of the experiment, the mice received a tumour fragment (30-60 mg) bilaterally under the skin using a trocar. The bilateral implantation of the tumours ensured a more uniform tumour weight per mouse and thus made it possible to reduce the number of animals per group. The mice were then divided into the different treated and untreated groups.
The product was suspended in an aqueous solution at concentrations that ranged from […], corresponding to doses of 0.1 to 10,000 mg/kg.
The treatments or their possible excipient were administered every day orally, at a maximum volume of 0.2 ml, the duration of administration depending on the doubling time of the tumour.
The tumours were measured 2 to 3 times per week, using a calliper rule, according to two measurements in mm, which were subsequently converted into tumour weight according to the following formula:
tumour weight (mg)=Length (mm)×width^2 (mm^2)/2
An active product was a product which made it possible to limit the growth of the tumour after it had been administered.

| Compound | Tumour stabilization |
| --- | --- |
| C=C(C(=O)N1C[C@H]2[C@@]3(c4ccc(C)cc4)CC[C@H](c4ccccc43)[C@@]2(C(=O)O)C1)c1ccccc1OC (single isomer, unassigned) [Example 3, dextrorotatory enantiomer of (3aRS,4SR,9RS,9aRS)-4,9-ethano-2-[2-(2-methoxyphenyl)propenoyl]-9-(4-methylphenyl)-2,3,3a,4,9,9a-hexahydro-1H-benzo[f]isoindole-3a-carboxylic acid] | Tumour stabilization |
